pIC50: −log10 of the molar value.
How the values were obtained:
CLK2 = target: T1, CLK2 (Homo sapiens, UniProt P49760); experiment: Biochemical assay for inhibitors of CLK2 kinase activity (ADP-Glo); settings: 20 nM CLK2, 50 μM peptide substrate, 100 μM ATP, read-out: Assay 2: CLK2 Enzyme IC50
T1 construct: purchased Carna Biosciences 04-127

intracellular CK2α = target: T2, intracellular CK2α (Homo sapiens, UniProt P19784); experiment: Cell-based NanoBRET assay for inhibitor binding to intracellular CK2α; settings: HCT116 cells transiently transfected with CSNK2A2-NanoLuc fusion vector; Tracer K-5; 2 h; read-out: Assay 3: NanoBRET ™ assay for binding to intracellular CK2α
T2 construct: host or cells: HCT116 (ATCC CCL-247)
Method in brief: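 Living cells expressing NanoLuc-CK2α fusion were given a fixed tracer concentration, and compounds competitively displaced the reversibly bound tracer. Donor (450 nm) and acceptor (610 or 630 nm) emissions were read; BRET ratio = (acceptor/donor)×1,000, giving apparent intracellular affinity.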

CK2α = target: T3, CK2α (Homo sapiens, UniProt P68400); experiment: Biochemical assay for inhibitors of CK2α kinase activity (ADP-Glo); settings: 0.2 nM CK2α, 50 μM peptide substrate, 15 μM ATP, read-out: Assay 1: CK2α Enzyme IC50
T3 construct: CK2α (residues 2-329) was produced in Escherichia coli BL21 (DE3) for kinase activity screening; His6 (N, cleaved yes); made in house; host or cells: Escherichia coli BL21 (DE3)
T3 sequence (P68400 2-329): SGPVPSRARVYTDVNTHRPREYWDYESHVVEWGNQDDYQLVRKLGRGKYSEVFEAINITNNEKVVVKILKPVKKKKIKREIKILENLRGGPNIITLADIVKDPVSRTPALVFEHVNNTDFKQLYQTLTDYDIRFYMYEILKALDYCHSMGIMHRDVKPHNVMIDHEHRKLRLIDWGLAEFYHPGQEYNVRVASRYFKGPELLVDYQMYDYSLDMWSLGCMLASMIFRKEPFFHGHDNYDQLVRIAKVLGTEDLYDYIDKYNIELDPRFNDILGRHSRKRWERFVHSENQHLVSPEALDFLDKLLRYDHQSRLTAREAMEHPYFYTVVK

T1 sequence (P49760 whole entry): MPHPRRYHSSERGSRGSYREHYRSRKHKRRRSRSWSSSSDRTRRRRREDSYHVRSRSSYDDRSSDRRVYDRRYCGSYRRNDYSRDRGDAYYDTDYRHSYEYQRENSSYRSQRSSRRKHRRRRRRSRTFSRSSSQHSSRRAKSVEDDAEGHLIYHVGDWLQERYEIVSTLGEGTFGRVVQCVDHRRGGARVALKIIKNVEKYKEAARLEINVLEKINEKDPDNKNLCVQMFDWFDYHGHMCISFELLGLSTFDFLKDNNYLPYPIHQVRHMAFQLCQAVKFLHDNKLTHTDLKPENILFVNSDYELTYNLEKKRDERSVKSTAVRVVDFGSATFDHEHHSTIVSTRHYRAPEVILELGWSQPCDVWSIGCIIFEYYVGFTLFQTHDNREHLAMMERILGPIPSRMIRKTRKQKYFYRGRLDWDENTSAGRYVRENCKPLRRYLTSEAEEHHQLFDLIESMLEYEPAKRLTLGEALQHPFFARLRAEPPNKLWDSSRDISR
T2 sequence (P19784 whole entry, the tested form may be a part): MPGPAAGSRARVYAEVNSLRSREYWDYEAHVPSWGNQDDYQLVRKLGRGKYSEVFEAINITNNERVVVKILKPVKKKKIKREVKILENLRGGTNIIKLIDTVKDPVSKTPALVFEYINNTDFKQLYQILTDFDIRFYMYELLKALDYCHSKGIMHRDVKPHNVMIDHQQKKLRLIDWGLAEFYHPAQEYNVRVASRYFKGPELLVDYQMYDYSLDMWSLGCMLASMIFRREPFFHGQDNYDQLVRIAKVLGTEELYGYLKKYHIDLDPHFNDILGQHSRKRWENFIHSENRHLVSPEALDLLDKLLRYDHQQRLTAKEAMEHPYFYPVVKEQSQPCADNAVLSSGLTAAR

pIC50 (CLK2)	pIC50 (intracellular CK2α)	pIC50 (CK2α)	Compound
7.16	7.16	8.05	C[C@H](COCCCCNCc1cc(CO)cc(OC(F)(F)F)c1)Nc1cc(-c2cnns2)cc2[nH]ncc12 [Example 208, (R)-(3-(((4-(2-((6-(1,2,3-thiadiazol-5-yl)-1H-indazol-4-yl)amino)propoxy)butyl)amino)methyl)-5-(trifluoromethoxy)phe-nyl)methanol]
6.37	6.53	9.15	CN(CCCCNCc1ccc(OC(F)(F)F)c(Cl)c1)CCNc1cc(-n2cnnc2)cc2[nH]ncc12 [Example 72, N1-(2-((6-(4H-1,2,4-triazol-4-yl)-1H-indazol-4-yl)amino)ethyl)-N4-(3-chloro-4-(trifluoromethoxy)benzyl)-N1-methylbutane-1,4-diamine]
4.75	5.69	8.56	N#CCc1cc(CNCCCCOCCNc2cc(-n3cnnc3)cc3[nH]nnc23)cc(OC(F)(F)F)c1 [Example 141, 2-(3-(((4-(2-((6-(4H-1,2,4-triazol-4-yl)-1H-benzo[d][1,2,3]triazol-4-yl)amino)ethoxy)butyl)amino)methyl)-5-(trifluoromethoxy)phenyl)acetonitrile]
5.72	5.91	7.97	O=C(CCNCc1ccc(OC(F)(F)F)c(Cl)c1)NCCCNc1cc(-c2cocn2)cc2[nH]ncc12 [Example 175, 3-((3-chloro-4-(trifluoromethoxy)benzyl)amino)-N-(3-((6-(oxazol-4-yl)-1H-indazol-4-yl)amino)propyl)propanamide]
6.38	5.66	8.86	Cc1nncn1-c1cc(NCCCNC(=O)CCNCc2ccc(-c3ccccc3)c(Cl)c2)c2cn[nH]c2c1 [Example 71, 3-(((2-chloro-[1,1′-biphenyl]-4-yl)methyl)amino)-N-(3-((6-(3-methyl-4H-1,2,4-triazol-4-yl)-1H-indazol-4-yl)amino)propyl)propanamide]
6.64	5.74	7.88	Fc1cc(CNCCCCOC2CN(c3cc(-c4cnoc4)cc4[nH]ncc34)C2)ccc1OC(F)(F)F [Example 135, N-(3-fluoro-4-(trifluoromethoxy)benzyl)-4-((1-(6-(isoxazol-4-yl)-1H-indazol-4-yl)azetidin-3-yl)oxy)butan-1-amine]
7.40	4.78	8.84	O=C(CCNCc1ccc(OC(F)(F)F)c(CO)c1)NCCCNc1cc(-n2cnnc2)cc2[nH]ncc12 [Example 44, N-(3-((6-(4H-1,2,4-triazol-4-yl)-1H-indazol-4-yl)amino)propyl)-3-((3-(hydroxymethyl)-4-(trifluoromethoxy)benzyl)amino)propanamide]
6.88	6.07	9.24	CNc1n[nH]c2cc(-n3cnnc3)cc(NCCCNC(=O)CCNCc3ccc(OC(F)(F)F)c(Cl)c3)c12 [Example 191, 3-((3-chloro-4-(trifluoromethoxy)benzyl)amino)-N-(3-((3-(methylamino)-6-(4H-1,2,4-triazol-4-yl)-1H-indazol-4-yl)amino)propyl)propanamide]
6.80	5.48	7.63	CN(CCCNc1cc(-n2cnnc2)cc2[nH]ncc12)C(=O)CCNCc1ccc(OC(F)(F)F)c(Cl)c1 [Example 20, N-(3-((6-(4H-1,2,4-triazol-4-yl)-1H-indazol-4-yl)amino)propyl)-3-((3-chloro-4-(trifluoromethoxy)benzyl)amino)-N-methylpropanamide]
7.28	6.29	9.30	Nc1cc(-c2cc(NCCCNC(=O)CCNCc3ccc(OC(F)(F)F)c(Cl)c3)c3cn[nH]c3c2)cnn1 [Example 188, N-(3-((6-(6-aminopyridazin-4-yl)-1H-indazol-4-yl)amino)propyl)-3-((3-chloro-4-(trifluoromethoxy)benzyl)amino)propanamide]
5.25	5.19	7.10	O=C(CCNCc1ccc(OC(F)(F)F)c(Cl)c1)NCCCNc1cc(-c2ccncc2Cl)cc2[nH]ncc12 [Example 169, 3-((3-chloro-4-(trifluoromethoxy)benzyl)amino)-N-(3-((6-(3-chloropyridin-4-yl)-1H-indazol-4-yl)amino)propyl)propanamide]
6.18	6.42	7.97	C[C@@H](CCCOCCNc1cc(-n2cnnc2)cc2[nH]ncc12)NCc1cc(CO)cc(OC(F)(F)F)c1 [Example 192, (S)-(3-(((5-(2-((6-(4H-1,2,4-triazol-4-yl)-1H-indazol-4-yl)amino)ethoxy)pentan-2-yl)amino)methyl)-5-(trifluoromethoxy)phenyl)methanol]
4.61	< 4.30	6.77	N#CCc1cc(CNCCCCOC2CN(c3cc(-n4cnnc4)cc4[nH]nnc34)C2)cc(OC(F)(F)F)c1 [Example 154, 2-(3-(((4-((1-(6-(4H-1,2,4-triazol-4-yl)-1H-benzo[d][1,2,3]triazol-4-yl)azetidin-3-yl)oxy)butyl)amino)methyl)-5-(trifluoromethoxy)phenyl)acetonitrile]
4.82	< 4.30	6.59	FC(F)(F)c1ccc2[nH]c(CNCCCCOC3CN(c4cc(-c5ccnnc5)cc5[nH]nnc45)C3)cc2c1 [Example 149, 4-((1-(6-(pyridazin-4-yl)-1H-benzo[d][1,2,3]triazol-4-yl)azetidin-3-yl)oxy)-N-((5-(trifluoromethyl)-1H-indol-2-yl)methyl)butan-1-amine]
4.93	4.47	6.87	FC(F)(F)Oc1ccc(CNCCCCOC2CN(c3cc(-n4cnnc4)cc4[nH]nnc34)C2)cc1Cl [Example 153, 4-((1-(6-(4H-1,2,4-triazol-4-yl)-1H-benzo[d][1,2,3]triazol-4-yl)azetidin-3-yl)oxy)-N-(3-chloro-4-(trifluoromethoxy)benzyl)butan-1-amine]
7.42	4.69	9.21	O=C(CCNCc1cc(Cl)cc(CO)c1)NCCCNc1cc(-n2cnnc2)cc2[nH]ncc12 [Example 43, N-(3-((6-(4H-1,2,4-triazol-4-yl)-1H-indazol-4-yl)amino)propyl)-3-((3-chloro-5-(hydroxymethyl)benzyl)amino)propanamide]
6.35	6.46	8.53	Cc1cc(-c2cc(NCCCNC(=O)CCNCc3ccc(-c4ccccc4)c(Cl)c3)c3cn[nH]c3c2)ccn1 [Example 21, 3-(((2-Chloro-[1,1′-biphenyl]-4-yl)methyl)amino)-N-(3-((6-(2-methylpyridin-4-yl)-1H-indazol-4-yl)amino)propyl)propanamide]
6.52	7.26	7.91	C[C@@H](CCCOCCNc1cc(-c2cnoc2)cc2[nH]ncc12)NCc1cc(OC(F)(F)F)cc(C(N)=O)c1 [Example 196, (S)-3-(((5-(2-((6-(isoxazol-4-yl)-1H-indazol-4-yl)amino)ethoxy)pentan-2-yl)amino)methyl)-5-(trifluoromethoxy)benzamide]
7.06	< 4.30	8.04	O=C(CCNCc1cccc(CCO)c1)NCCCNc1cc(-n2cnnc2)cc2[nH]ncc12 [Example 40, N-(3-((6-(4H-1,2,4-triazol-4-yl)-1H-indazol-4-yl)amino)propyl)-3-((3-(2-hydroxyethyl)benzyl)amino)propanamide]

Compound	pIC50 (CLK2)	pIC50 (intracellular CK2α)	pIC50 (CK2α)
c1cc2[nH]c(CNCCCCOCCOc3cc(-c4cnoc4)cc4[nH]ncc34)cc2cc1OC1CCC1 [Example 54, N-((5-cyclobutoxy-1H-indol-2-yl)methyl)-4-(2-((6-(isoxazol-4-yl)-1H-indazol-4-yl)oxy)ethoxy)butan-1-amine]	6.66	6.89	8.84
COc1n[nH]cc1-c1cc(NCCOCCCCNCc2cc3cc(C(F)(F)F)ccc3[nH]2)c2cn[nH]c2c1 [Example 92, 6-(3-methoxy-1H-pyrazol-4-yl)-N-(2-(4-(((5-(trifluoromethyl)-1H-indol-2-yl)methyl)amino)butoxy)ethyl)-1H-indazol-4-amine]	7.62	5.75	7.72
N-(2-(4-((3-chloro-4-(trifluoromethoxy)benzyl)amino)butoxy)ethyl)-6-(azetidine-4-yl)-1H-benzo[d][1,2,3]triazol-4-amine [Example 127]	5.86	6.51	8.30
FC(F)(F)c1ccc2[nH]c(CNCCCCOCCNc3cc(-c4ccnnc4)cc4[nH]nnc34)cc2c1 [Example 100, 6-(pyridazin-4-yl)-N-(2-(4-(((5-(trifluoromethyl)-1H-indol-2-yl)methyl)amino)butoxy)ethyl)-1H-benzo[d][1,2,3]triazol-4-amine]	4.64	5.85	7.65
